These results are taken from patent US20220265591A1, “USE OF AN OSMOLYTE IN MANUFACTURE OF A MEDICAMENT FOR TREATMENT OF OCULAR DISORDERS” (SINGAPORE HEALTH SERVICES PTELTD, priority 2019, published 2022).

SMILES strings stand for the structures. Entries after “also recorded” stand apart in the source; their conditions may differ. Read-outs that look alike come from different tables or passages of the source.

Assay [1] addresses T1, preformed amyloid fibrils from TGFBIp611-633 G623R peptide (Homo sapiens, UniProt Q15582, G623R).
T1 construct: The 23-amino acid long peptide (TGFBIp 611-633 c.623 G>R) from the 4th FAS1 domain; purchased Synpeptide Co Ltd, Shanghai, China; host or cells: synthetic peptide
Briefly: Circular Dichroism assay (θ[218]), disaggregation of preformed amyloid fibrils. Type of assay: biochemical. The conditions noted are these: for inhibition at 200000 µM / disruption of the β-sheet structure compared among the four osmolytes, CD: preformed fibrils; for inhibition at 200000 µM: read-out: % Inhibition (mean ± SD) n = 3, θ[218] of preformed amyloid fibrils, circular dichroism; for % Dissolution at final time point, CD: TGFBIp-G623R preformed fibrils, listed as taurine. The method, then: Circular Dichroism (CD) spectroscopy was performed to study the disaggregation of the preformed amyloid fibrils. […] The treatment solutions were studied by far UV-CD assay.
(§1) Circular Dichroism (CD) spectroscopy was performed to study the disaggregation of the preformed amyloid fibrils. The preformed amyloid fibrils were treated with taurine at a concentration of 200 mM and 320 mM in PBS buffer at pH 7.0 for 24 h, 48 h and 72 respectively. The treatment solutions were studied by far UV-CD assay.
A general note: Circular dichroism is widely used to follow secondary structure.

Assay [2] has as its target T2, TGFBIp611-633 G623R peptide (Homo sapiens, UniProt Q15582, G623R).
T2 construct: The 23-amino acid long peptide (TGFBIp 611-633 c.623 G>R) from the 4th FAS1 domain; purchased Synpeptide Co Ltd, Shanghai, China; host or cells: synthetic peptide
Briefly: Circular Dichroism assay (θ[218]), inhibition of amyloid fibrillation. It counts as biochemical. As to the method:
The peptide samples were collected 0.1 cm path length quartz cuvettes and examined in a Chirascan™-plus Spectropolarimeter (Applied Photophysics Limited, UK). Spectra were recorded from 260 nm to 190 nm in 0.1 nm steps at a scan rate of 50 nm/min. The final spectrum was the average of three scans as per the manufacturer's recommendation. The Mean Residual Weight (MRW) ellipticity ([θ]mrw values) at wavelength λ was calculated using the following equation (i): […]
whereby θλ is the observed ellipticity at a particular wavelength (degrees), I is the path length (cm), and c is the concentration (g/ml). Secondary structures of the protein were analyzed using CDNN software.
The θ[218] values that determine the β-sheet secondary structure were used to calculate the percentage inhibition in cross β-sheet in the untreated and osmolyte-treated peptide samples at various time points. Percentage inhibition for each osmolyte treatment per time point was calculated by normalizing the [θ]218 values of osmolyte treatment with the [θ]218 values of the untreated samples and expressed as a percentage.
Circular Dichroism (CD) spectroscopy was performed to study the changes in the secondary structure of the peptides. The TGFBIp^611-633 G623R peptides were treated with 200 mM and 320 mM of taurine in PBS buffer at pH 7.0 for 24 h, 48 h and 72 h, respectively. While the TGFBIp^611-633 N622K peptides were treated with 200 mM and 320 mM of taurine in PBS buffer at pH 7.0 for 72 h, 96 h, 120 h, 144 h, 192 h, 216 h, and 240 h, respectively. The treatment solutions were studied by far UV-CD assay.

Assay [3] has as its target T2, TGFBIp611-633 G623R peptide. Briefly: ThT fluorescence microscopy, inhibition of amyloid fibrillation. As to the method: The inhibitory effects of the four osmolytes on amyloid fibrillation of the TGFBIp^611-633 G623R peptide were investigated further by fluorescence microscopy after ThT staining. The peptide samples collected at various time points above were incubated ThT at a ratio of 1:1 ratio in the dark for 30 minutes to obtain solutions for fluorescence microscopy. 25 μl of the solutions were taken on to slides with coverslips and visualized under a fluorescent microscope (Axiolmager Z1, Carl Zeiss, Oberkochen, Germany).
The inhibition effect of taurine on the amyloid fibrillation was investigated further by fluorescence microscopy after ThT staining. The samples collected at the various time points above were incubated ThT at a ratio of 1:1 ratio in the dark for 30 minutes to obtain solutions for fluorescence microscopy. 25 μl of the solutions were taken on to slides with coverslips and visualized under a fluorescent microscope.

Assay [4] concerns the target T3, preformed amyloid fibrils from TGFBIp611-633 N622K peptide (Homo sapiens, UniProt Q15582, N622K).
T3 construct: purchased Synpeptide Co Ltd, Shanghai, China; host or cells: synthetic peptide
The assay can be described thus: Circular Dichroism assay, disaggregation of preformed amyloid fibrils. Type of assay: biochemical. The conditions noted are these: TGFBIp-N622K preformed fibrils, listed as taurine. As to the method:
(§2) The model peptides TGFBIp^611-633 G623R and TGFBIp^611-633 N622K were incubated in PBS for 24 hours for the TGFBIp^611-633 G623R peptide and 96 hours for the TGFBIp^611-633 N622K peptide, allowed to form uniform amyloid fibrils. The formation of amyloid fibrils was confirmed by (SEM) and CD spectroscopy.
as §1

Assay [5] deals with T3, preformed amyloid fibrils from TGFBIp611-633 N622K peptide. The assay can be described thus: ThT fluorescence assay, dissolution of preformed amyloid fibrils. It counts as biochemical. Particulars: TGFBIp-N622K preformed fibrils. As to the method: as §2
The preformed amyloid fibrils were treated with taurine at a concentration of 200 mM and 320 mM for up to 72 hours, respectively. The preformed amyloid fibrils incubated with PBS were used as controls.
The samples were collected at 24 h, 48 h and 72 h after treatment for the TGFBIp^611-633 G623R peptides, and at 24 h, 48 h, 96 h and 144 h after treatment for the TGFBIp^611-633 N622K peptides. The samples were then treated with 30 μM ThT in PBS buffer at pH 5.5 in a 96-well microplate for ThT fluorescence assay. The microplate was excited at 445 nm and the resulting emission fluorescence at 485 nm was measured using a microplate reader.

Setting [6] is: 200 mM, 24 h, read-out: % Inhibition (mean ± SD) n = 3, θ[218] circular dichroism.
Setting [7] is: 200 mM, 48 h, read-out: % Inhibition (mean ± SD) n = 3, θ[218] circular dichroism.
Setting [8] is: 200 mM, 72 h, read-out: % Inhibition (mean ± SD) n = 3, θ[218] circular dichroism.

T3 sequence (Q15582 611-633 N622K limits assumed): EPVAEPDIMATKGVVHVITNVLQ
T2 sequence (Q15582 611-633 G623R limits assumed): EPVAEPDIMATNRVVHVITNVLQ

For orientation: inhibition means the relative decrease from the control value, in per cent. Consider `C[N+](C)(C)CC(=O)O` [Betaine, betaine], for which the inhibition at 200000 µM in assay [1] (200 mM, 24 h) amounted to 6 ± 1%; in assay [1] (200 mM, 48 h), 24 ± 11%; in assay [1] (200 mM, 72 h), 36%; in assay [2] (setting [6]), 8%; in assay [2] (setting [7]), 19%; in assay [2] (setting [8]), 34%.
With `OC[C@H]1O[C@H](OC[C@H]2O[C@H](O[C@]3(CO)O[C@H](CO)[C@@H](O)[C@@H]3O)[C@H](O)[C@@H](O)[C@@H]2O)[C@H](O)[C@@H](O)[C@H]1O` [Raffinose, raffinose], the inhibition at 200000 µM in assay [1] (200 mM, 24 h) is 7 ± 7%; in assay [1] (200 mM, 48 h), 48 ± 9%; in assay [1] (200 mM, 72 h), about 58%; in assay [2] (setting [6]) it was 19%; in assay [2] (setting [7]), 23%; in assay [2] (setting [8]) it was 57%. Besides, the “disruption of the β-sheet structure compared among the four osmolytes, CD” value in assay [1] (200 mM) is reported as “highest disruption of the β-sheet structure”. In assay [2] (200 mM), the “inhibitory effect on fibrillation compared among the four osmolytes, CD” value is on record as “maximum inhibition; also recorded: maximum inhibitory effect”.
Take `CNCC(=O)O` [Sarcosine, sarcosine]: the inhibition at 200000 µM was 12 ± 8% in assay [1] (200 mM, 24 h); 39 ± 6% in assay [1] (200 mM, 48 h); 41% in assay [1] (200 mM, 72 h); about 17% in assay [2] (setting [6]); about 43% in assay [2] (setting [7]); about 57% in assay [2] (setting [8]). Further, the “inhibitory effect on fibrillation compared among the four osmolytes, CD” value in assay [2] (200 mM) was “maximum inhibition”.
In general, % Inhibition refers to the change of the read-out against control, counted positive when it falls. Lower therefore signals a response near the control. `NCCS(=O)(=O)O` [Taurine, taurine]: the “fluorescent intensity under microscope” value in assay [3] (200 mM and 320 mM) is “reduction in fluorescent intensity”. Also, the “ThT fluorescence images, fluorescent spots” value in assay [3] (200 mM, 24 h to 72 h, versus PBS control) was “relatively smaller fluorescent spots even after 24 h”. In addition, the “% Dissolution at final time point, CD” value in assay [4] (200 mM) came to 61%; in assay [4] (320 mM) it was 66%; in assay [1] (200 mM), 49%; in assay [1] (320 mM), 69%. Besides, the “% Dissolution at final time point, ThT” value in assay [5] (200 mM) is given as 83%; in assay [5] (200 mM, listed as taurine), 83%; in assay [5] (320 mM), 88%; in assay [5] (320 mM, listed as taurine) it was 88%. Moreover, the inhibition at 200000 µM in assay [1] (200 mM, 24 h) was 13 ± 6%; in assay [1] (200 mM, 48 h), 40 ± 12%; in assay [1] (200 mM, 72 h), about 54%; in assay [2] (setting [6]), about 25%; in assay [2] (setting [7]), about 54%; in assay [2] (setting [8]), about 56%. Besides, in assay [2] (TGFBIp-G623R, 200 mM, final time point, read-out: % Inhibition at final time point, CD), the inhibition at 200000 µM was 41%. Besides, the “disruption of the β-sheet structure compared among the four osmolytes, CD” value in assay [1] (200 mM) is reported as “highest disruption of the β-sheet structure”. In addition, the “% Inhibition at final time point, CD” value in assay [2] (TGFBIp-G623R, 200 mM, final time point) is 42%; in assay [2] (TGFBIp-G623R, 320 mM, final time point), 63%. Also, the inhibition at 320000 µM in assay [2] (TGFBIp-G623R, 320 mM, final time point, read-out: % Inhibition at final time point, CD) worked out at 61%.
